Measurements: article PMC10940318, “Targeted intracellular delivery of dimeric STINGa by two pHLIP peptides for treatment of solid tumors” (Frontiers in Pharmacology, 2024)
Several values for one entry are separate records, joined by “and”; a condition that tells them apart may be missing. Equal values may be shown once.

Columns and labels:
[1] = test system: CT26 murine colorectal cancer tumors; assay: Treatment of CT26 tumors in mice; type: in vivo, Balb/c mice; details: CT26 tumors 100-150 mm3, female Balb/c, followed 65 days
Description: For the treatment of CT26 tumors, 5 × 10^4 CT26 murine colorectal cancer cells (ATCC, CRL-2638) were injected subcutaneously (SQ) in 100 μL of growth medium into the right flank of female Balb/c mice ranging in age from 7 to 9 weeks (Envigo RMS, Inc.). […] The compounds were dissolved in DMSO as a stock solution and transferred to PBS (vehicle). The residual DMSO in the final solution injected into animals was less than 2%. Tumor volume and body weight were measured 3 times per week throughout the study. Measurements of tumors were performed using calipers, and the tumor volume (V) was calculated with the formula: V=0.52∙L∙W^2 where L is the length and W is the width of the measured tumor. Mice were removed from the study and euthanized when the tumor volume was greater than 2,000 mm^3.

[2] = target: human serum albumin (HSA) (Homo sapiens, UniProt P02768)
Description: HSA was initially dissolved to 500 μM in deionized water and further diluted using pH 7.6 phosphate buffer. Dansylamide (DNSA) or dansylglycine (DNSG) (both from Tokyo Chemical Industry) were used as fluorescent markers, which are known to bind to specific sites on HSA. Each well contained 100 μL of sample consisting of the fluorescent marker DNSA or DNSG (1 μM), with different concentrations of pHLIP agents (0, 5, or 10 μM) and concentrations of HSA ranging from 0 μM to 100 μM. Samples were incubated for 2 h at 37°C. […] Fluorescence measurements from each well were performed at 485 nm with excitation at 365 nm at 37°C. As a control, binding of DNSA and DNSG were probed with each agent in absence of HSA. Before the measurements a plate reader optimization test was run. Data were fitted individually and globally using the Michaelis-Menten equation. […] Data was fitted by nonlinear least squares curve fitting procedures employing the Levenberg Marquardt algorithm using Origin 8.5.
Table S1. Competitive binding assay.
Figure S8. HSA binding. […] The global fitting was performed with each set of data and the fitting curves are shown as black, blue and red lines.

[3] = test system: THP-1-Blue-ISG cells polarized into M2-type macrophages; assay: Activation of IFN (IRF-SEAP reporter) in M2-polarized macrophages; type: cell-based, human; details: THP1-Blue-ISG cells polarized by PMA, IL-4/IL-13, 2 h in DMEM without FBS pH 6.9, then 48 h, QUANTI-Blue, absorbance 655 nm, read-out: EC50 of activation of IRF signaling
Description: THP-1-Blue™-ISG cells (Invivogen) expressing an interferon (IFN) regulatory factor (IRF)-inducible secreted embryonic alkaline phosphatase (SEAP) reporter construct were used. Cells were maintained in RPMI growth medium supplemented with L-glutamine, sodium pyruvate, 10% fetal bovine serum (FBS), normocin and ciprofloxacin hydrochloride in a humidified atmosphere of 5% CO2 and 95% air at 37°C. Cells were seeded in 96-well plates at a density of 75,000 cells/well. To generate M2 polarized macrophages, cells were treated first with 185 ng/mL phorbol 12-myristate 13-acetate (PMA) for 6 h and then 20 ng/mL of interleukin 4 (IL-4) and 20 ng/mL of interleukin 13 (IL-13) (both from PeproTech) were added for another 16 h of treatment. […] After a 2-h incubation, an equal volume of RPMI supplemented with 20% heat-inactivated FBS was added, and cells were incubated for another 48 h. SEAP activity was accessed using the QUANTI-Blue™ Solution (Invivogen) to evaluate type I interferon protein levels: 150 μL of the colorimetric reagent was added to 50 μL of cell supernatant for 30 min, 37°C, followed by absorption measurement at 655 nm.

CT26 tumors = assay: Cytokine levels in tumor and serum by ELISA; type: in vivo, Balb/c mice
Description: To establish levels of cytokines in blood and tumor samples, 5 × 10^4 CT26 cancer cells were injected SQ in 100 µL of growth medium into the right flank of female Balb/c mice. When tumors reached 250–500 mm^3 in volume, the mice received a single IP injection of 300 μM 500 µL 2pHLIP-dMSA or no injections. Animals were euthanized at 6- and 24-h post-injection, blood and tumors were collected. Blood samples were kept for 40 min at RT, centrifuged at 5,000 g for 20 min at +4°C and supernatant (serum) was collected. Tumors were frozen in liquid nitrogen. Both the serum and the tumor tissue samples were kept at −80°C until further processing and analysis. The tumor samples were processed while on ice, using a bullet blender (Next Advance) with 1 mm diameter zirconium silicate beads (Next Advance). The supernatant of the processed tumors was used for enzyme-linked immunoassay (ELISA) assays. Matched antibody pair kits for mouse TNF alpha (Sino Biological), mouse IL-6 (Abcam), mouse IFN gamma (Invitrogen), mouse IFN beta (Bio-Techne), and a precoated mouse IFN alpha kit (Invitrogen) were used. For TNF alpha and IFN beta the capture antibodies were diluted in PBS (Cytiva), while the IL-6 and IFN gamma capture antibodies were diluted in their respective coating buffers. The diluted capture antibodies were incubated in the plates overnight at +4°C and washed the next day with PBS/Tween washing buffer (Sigma-Aldrich). The TNF alpha plate was blocked using 2% BSA (Thermo-Scientific) diluted in washing buffer, the IFN beta plate was blocked using 1% BSA diluted in PBS, while the IFN alpha, IFN gamma, and IL-6 plates were blocked using their respective dilution buffers. Blocking was done for 2 h at RT on an orbital shaker at 200 rpm. After blocking, the plates were washed and then incubated with the diluted tumor and serum samples along with the corresponding standard solutions for each ELISA kit. The samples were incubated for 2 h at RT on an orbital shaker at 200 rpm. The TNF alpha plate was incubated for 1 h at RT with a diluted detection antibody conjugated with horseradish peroxidase (HRP). The IL-6, IFN alpha, IFN beta, and IFN gamma plates were incubated for 1 h at RT with a diluted detection antibody conjugated with biotin followed by incubation for 1 h at RT with their respective diluted HRP-streptavidin conjugates. All plates were washed and incubated with 3,3′,5,5′-tetramethylbenzidine (TMB) (Invitrogen) and peroxide solution mixed at a ratio of 1:1 (Thermo Scientific) for up to 20 min, then a stop solution (10% H2SO4) was added to the plates. The signal from the wells was quantified by absorbance measured at 450 nm using a Bio-Rad iMark microplate reader. Antibody standards were used to plot calibration curves.

[4] = single IP injection 300 µM 500 µL, 6 and 24 h

ADQDNPWRAYLDLLFPTDTLLLDLLWCG [2pHLIP-dMSA]
mice survived out of treated, lower dose ([1]; two IP injections of 100 µM 500 µL (l.d.) on days 1 and 3): 4 out of 10 and 4/10
mice with tumor eradicated / survived out of treated ([1]; two IP injections of 300 µM 500 µL on days 1 and 3): 7/10
binding to HSA (in words) [2]: strong binding
EC50 [3]: 200 nM
IL-6 level in blood (Figure 4D, in words) (CT26 tumors; 6 h after single IP injection 300 µM 500 µL, returned to normal at 24 h): slight increase
increase of TNF-α level in tumors (CT26 tumors; 6 h after single IP injection 300 µM 500 µL, vs untreated mice): 23 fold
TNF-α level in tumors (in words) (CT26 tumors; 24 h after single IP injection 300 µM 500 µL): fell to a normal level
level of IFN-α in tumors and serum (in words) (CT26 tumors; [4]): did not change much
level of IFN-γ in tumors and serum (in words) (CT26 tumors; [4]): did not change much
TNF-α level in serum (in words) (CT26 tumors; single IP injection 300 µM 500 µL, treated and untreated mice): insignificant
IFN-β level in serum (in words) (CT26 tumors; single IP injection 300 µM 500 µL, two orders of magnitude lower than in tumors): slight increase
increase of tumor level of IFN-β (CT26 tumors; single IP injection 300 µM 500 µL, vs untreated mice): 8 fold
